Literature values in PMC9171782 (Proceedings of the National Academy of Sciences of the …, 2022).

Tests used:
[1] = tested on: GLP-1R with mutation of W33; conditions: mutation of W33 conserved in human and primate GLP-1Rs

Row | Molecule | agonist activity at W33-mutated GLP-1R [1] | insulinotropic activity upon oral intake (cynomolgus monkeys) | bioavailability (noninjectable formulation in the clinic) | gastrointestinal complaints (such as nausea and vomiting)
1 | Cc1cc(-n2nc3c(c2-n2ccn(-c4ccc5c(cnn5C)c4F)c2=O)[C@H](C)N(C(=O)c2cc4cc(N5CCOC(C)(C)C5)ccc4n2[C@@]2(c4noc(=O)[nH]4)C[C@@H]2C)CC3)cc(C)c1F [CHU-128] | failed to elicit agonist activity | – | – | –
2 | Cc1cc(-n2nc3c(c2-n2ccn(-c4ccc5c(cnn5C)c4F)c2=O)[C@H](C)N(C(=O)c2cc4cc([C@H]5CCOC(C)(C)C5)ccc4n2[C@@]2(c4noc(=O)[nH]4)C[C@@H]2C)CC3)cc(C)c1F [LY3502970] | failed to elicit agonist activity | demonstrated | – | –
3 | N#Cc1ccc(COc2cccc(C3CCN(Cc4nc5ccc(C(=O)O)cc5n4C[C@@H]4CCO4)CC3)n2)c(F)c1 [PF-06882961] | failed to elicit agonist activity | demonstrated | – | –
4 | N#Cc1ccc(COc2cccc(C3=CCN(Cc4nc5ccc(C(=O)O)nc5n4C[C@@H]4CCO4)CC3)n2)c(F)c1 [RGT1383] | failed to elicit agonist activity | – | – | –
5 | Semaglutide | – | – | low bioavailability | frequent gastrointestinal complaints
